Measured values from US5874461A, “Use of Nebivolol as an anti-atherogenic” (priority 1995, dated 1999).
Like-named read-outs stand apart in the source and are kept apart here.

Key:
[1] = system: primary embryonic hippocampal cultures; assay: VitE complementation (vitE depletion) test on primary neuronal cultures; type: cell-based, rats; details: for rescue of survival of vitE depleted cultures: 10^-7 M and 10^-6 M
Procedure: Primary embryonic hippocampal cultures were prepared essentially as described previously (Pauwels et al., Van Aschouw, H. P., Peeters, L., Moeremans, M., Leysen, J. E. (1992) Chronic treatment with sabeluzole protects cultured rat brain neurons from the neurotoxic effects of excitatory amino acids. Synapse, 12:271-280). Hippocampal formations of rats at embryonic day 17 were dissected and dissociated in 0.05% trypsin, 0.1 mg/ml DNase I in DMEM (Dulbecco Modified Eagle Medium). Heat-inactivated horse serum (HS) was added to a concentration of 4%, and the cells were centrifuged, washed with DMEM, and resuspended in DMEM/Ham's F12 (3:1) containing 10% HS. The cells were plated at a density of 4×10^5 cells/cm^2 in poly L-lysine (0.001%) precoated multiwell-24 plates. On day 1 in culture, the medium was changed to chemically defined CDM-R12 medium (DMEM-HEPES/Ham's F12 (3:1) containing 0.26% bovine serum albumin, 30 nM sodium selenite, 3 nM 3,3',5 triiodo-L-thyronine, 0.35 μM retinol, 0.3 μM retinol acetate, 2.3 μM DL-a-tocopherol, 2.1 μM DL-a-tocopherol acetate, 3.6 μM linolenic acid, 3.6 μM linoleic acid, 0.125% human transferrin, […], 57.7 nM corticosterone, 49 U/I insulin, 0.4 μM biotin, 10 μM L-carnitine, 83 μM D(+)-galactose, 3.3 μM glutathione, 10 μM ethanolamine, 0.1 mM putrescine; Romijn, H. J., van Huizen, F., Wolters, P. S. (1984) Towards an improved serum-free, chemically defined medium for long-term culturing of cerebral cortex tissue. Neurosci. Behav. Rev., 8:301-334). Acute and prolonged pretreatment of the, cultures was essentially as described previously (Pauwels et al., 1992). Drugs were dissolved, and diluted in 10% or 1% hydroxypropyl-β-cyclodextrin such that the final concentrations of the solvent in the acute and chronic exposures were 0.1% and 0.01% respectively. Compound A as used in the following examples is [(RRSR)+(RRRS)+(SSSR) +(SSRS)]-α-[[[2-(chroman-2-yl)-2-hydroxy-ethyl]amino]methyl]-6-hydroxy-2-chromanmethanol ethanedioate (1:1).
For vitE depletion experiments, primary cultures were set up as above, but on day 1 in culture, the medium was changed to chemically defined CDM-R12 medium with (control) or without DL-a-tocopherol (vitE) and DL-a-tocopherol acetate, in the presence or absence of test coumpound. […] Addition of compounds could rescue the cultures. […] The EC50 for complementation of vitE refers to the concentration of the compound required to restore culture survival to 50% of the survival seen for the culture grown in vitE supplemented medium. Seven concentrations of each compound were tested in triplicate, the number of independent experiments is indicated in the table, and the mean EC50 -value±SD was calculated.
Primary neuronal cultures depend on the presence of the antioxidant vitE in the culture medium for survival in vitro. When vitE depleted medium is used to grow the cultures, survival drops to ±20% of control. Compounds with antioxidative properties are able to complement the lack of vitE, and as such can when added to the culture medium, rescue vitE devoid cultures. Several nebivolol derivatives were tested at 10^-7 M and 10^-6 M in the vitE depletion test on primary neuronal cultures.
When nebivolol derivatives were administered during culture, the cultures could be rescued to a certain extent. 100% vitE complementation refers to the survival of a cell culture which is indifferent from a vitE containing cell culture.
When hydroxynebivolol was administered during culture, the cultures could be rescued. The EC50 refers to the concentration at which the culture is rescued for 50%, as measured by cytoplasmic LDH activity.

[2] = system: C6 glioma cells; assay: GSH content in C6 glioma cultures after glutamate; type: cell-based; details: for intracellular glutathione levels: 10 mM glutamate, 6 hr or more; for GSH content: glutamate 10 mM, without or with compound 1 μM
Excerpt: (§1) Competitive inhibition by glutamate of cystine uptake in certain cells leads to glutathione depletion and oxidative stress. This oxidative stress model has been described for glial C6 glioma cells (Kato et al., 1992. A mechanism for glutamate toxicity in the C6 glioma cells involving inhibition of cystine uptake leading to glutathione depletion. Neurosci. 48:903-914) and for the neuronal cell line N18RE105 (Murphy et al., 1989. Glutamate toxicity in a neuronal cell line involves inhibition of cystine transport leading to oxidative stress. Neuron 2:1547-1558).
(§2) Cell culture: The C6 glioma cell line (American Type Culture Collection, CCL 107) was cultivated in DMEM supplemented with 2 or 4 mM glutamine, 1 mM pyruvate and 5 or 10% heat-inactivated foetal calf serum. Cultures were maintained at 37° C. in an air/5~10% CO2, water saturated atmosphere.
(§3) Glutathione depletion and evaluation of drugs as antioxidants: Experiments were carried out with cultures plated at 30,000~50,000 cells/cm^2 in 24-well culture plates (for toxicity and lipid peroxide measurements) or at 136,000 cells/cm^2 in 96-well culture plates (for GSH determination). After 8-24 hr, the cultures were switched to culture medium in the absence or presence of the cystine uptake inhibitor glutamate at a final concentration of 10 mM. In order to test drugs for inhibition of oxidative stress, the drug was added together with glutamate (final concentration of solvent was 0.01% hydroxypropyl-β-cylodextrin, 0.1% DMSO). Intracellular glutathione levels were measured after 6~8 hr, lipid peroxides were measured after 14~20 hr, and toxicity and protection were analysed after 48 hr using an LDH assay according to the method of Bergmeyer and Bernt (UV-assay with pyruvate and NADH. In: Methods of Enzymatic Analysis. 1974. H. U. Bergmeyer, ed. Acad. Press, New York, 2nd Ed., pp 574-579).
Determination of GSH content in C6 glioma cultures: GSH levels were analysed by a micromethod, essentially as described by Vandeputte et al. (A microtiterplate assay for total glutathione and glutathione disulfide contents in cultured/isolated cells: performance study of a new miniaturised protocol. 1994. Cell Biol. Toxicol. 10:415-421), with a modification in the washing and homogenisation procedures. Cells (in 96-well plates) were washed with PBS, were homogenised in 50 μl 10 mM HCl containing 1.3% 5-sulfosalicylic acid, and the homogenate was centrifuged at 1200×g for 10 min at 4° C. Forty μl of the supernatant was transferred to a well of a 96-well plate and 200 μl reagent (1 mM 5,5'-dithiobis-(2-nitrobenzoic acid), 0.34 mM NADPH and 6.3 mM EDTA in 143 mM phosphate buffer pH 7.4) was added. After 5 min equilibration to room temperature the reaction was started by adding 40 μl glutathione reductase (8.5 IU/ml 143 mM phosphate buffer, 6.3 mM EDTA pH 7.4). NADPH oxidation was followed at 414 nm for 5 minutes with a Multiskan MCC/340 (Labsystems), and the change in absorbance (DA) per min was calculated. The glutathione content was deduced from a standard curve ranging from 0.2 to 2 nmol commercial GSH per test (DA/min plotted versus concentration).

[3] = system: C6 glioma cells; assay: Protection of C6 glioma cells from glutathione depletion-mediated oxidative stress (toxicity, LDH assay); type: cell-based; details: 10 mM glutamate; for IC50: 48 hr, read-out: Protection IC50 (mean ± SD, n = 3)
Excerpt: as §1, §2, §3

SMILES	% vitE complementation ([1]; 10^-6 M) [%]	% vitE complementation ([1]; 10^-7 M) [%]	rescue of survival of vitE depleted cultures [1]	intracellular glutathione levels [2]	GSH content [2] [pmol/well]	protection from cell death [3]	IC50 [3] [nM]	IC50 ([3]; C6 glioma, 48 h) [nM]	rescue of primary neuronal cultures grown in VitE depleted medium ([1]; 10^-6 M)	EC50 ([1]; Rattus norvegicus, 5 dose responses, cytoplasmic LDH activity, read-out: mean EC50 ± SD for complementation of vitE) [nM]
O[C@H](CNC[C@@H](O)[C@H]1CCc2cc(F)ccc2O1)[C@@H]1CCc2cc(F)ccc2O1 (relative stereo) [nebivolol, (RSSS) and (SRRR) α,α'-iminobis(methylene)bis[6-fluoro-2-chroman-methanol]]	29 ± 28	29 ± 29	able to rescue survival of vitE depleted cultures to a certain extent	remained about half the levels seen in healthy control cells	301 ± 12	protected these cultures from cell death with high potency	9.1 ± 0.1	~9		
Oc1ccc2c(c1)CCC(C(O)CNCC(O)C1CCc3ccccc3O1)O2 (stereo not drawn) [Compound A, [(RRSR)+(RRRS)+(SSSR) +(SSRS)]-α-[[[2-(chroman-2-yl)-2-hydroxy-ethyl]amino]methyl]-6-hydroxy-2-chromanmethanol ethanedioate (1:1)]	85 ± 21	27 ± 28	able to rescue survival of vitE depleted cultures to a certain extent	remained about half the levels seen in healthy control cells	301 ± 12	protected these cultures from cell death with high potency	8.6 ± 0.2	~9	complete rescue	126 ± 88
